Where a SMILES comes first, the peptide text is derived from it. Where no end group is shown, it is not given here. [ ]: non-standard residue; d: D form. Orn = NCCC[C@H](N)C(=O)O
Legend:
Clostridium difficile = assay: Killing of antibiotic resistant bacteria (FIG. 2); type: cell-based; settings: 1 hour time point after addition, single cell format
Pseudomonas aeruginosa = assay: Killing of antibiotic resistant bacteria (FIG. 2); settings: 1 hour time point after addition, single cell format
E. coli = settings: 24 h
Description: (§1) Measurement of antimicrobial and anti-fungal activity was determined by a standard micrometer dilution method. Briefly, cells were grown overnight in media specified for each strain, and were diluted in the same media. Serial dilutions of the peptides were added to microtiter plates in a volume of 50 ul, followed by the addition of 50 ul of bacteria or fungi, 5×10^5 CFU/ml. Plates were incubated at 37 degrees for 24 hours and the Minimum Inhibitory Concentrations (MICs) were determined as the lowest peptide concentration that inhibited 50% of bacterial growth.

E. cloaca = settings: 24 h
Description: as §1

[1] = system: bacterial isolates of Table 7 (A. baumanii, E. coli, E. cloaca, Pseudomonas, Staphylococcus)
Description: (§2) Briefly, cells were grown overnight in media specified for each strain, and were diluted in the same media. Serial dilutions of the peptides were added to microtiter plates in a volume of 50 ul, followed by the addition of 50 ul of bacteria or fungi, 5×10^5 CFU/ml. Plates were incubated at 37 degrees for 24 hours and the Minimum Inhibitory Concentrations (MICs) were determined as the lowest peptide concentration that inhibited 50% of bacterial growth.

C. albicans = settings: 24 h
Description: as §2

C. krusei = settings: 24 h
Description: as §1

[2] = system: fungal isolates of Table 8 (C. albicans, C. krusei, C. tropicalis)
Description: as §1

[3] = system: S. aureus MRSA (G+) biofilm
Description: (§3) The Minimum Biofilm Eradication Concentration (MBEC) Assay was used. MBEC values provide estimates on the concentration of an antimicrobial product required to kill biofilm bacteria. The Calgary Biofilm Device (CBD) plate was used to effect biofilm formation on a lid containing 96 pegs. Bacterial cultures were grown and diluted in Tryptic Soy Broth (TSB) to approximately 1×10^7 CFU/mL before inoculation of the CBD plate, which was then incubated for 24 hr at 35° C. on a shaker at 125 rpm.
(§4) The peg lid containing biofilm was first rinsed in PBS to remove planktonic cells prior to treatment with 2-fold serial dilutions of test articles and control overnight at 35° C. The peg lid was rinsed in PBS twice before sonication in fresh media to disrupt biofilm adhered to the pegs. The plate was then incubated overnight to evaluate growth. Bacterial quantification was performed by measuring absorbance at 650 nm (A650). By definition, A650 reading of less than 0.1 indicates biofilm eradication.

[4] = system: S. epidermis (G+) biofilm
Description: as §3, §4

[5] = system: P. aeruginosa (G−) biofilm
Description: as §3, §4

B. thailandensis = settings: concentration required to kill 50% of B. thailandensis; 10 mM phosphate buffer, 3 h, 37° C.
Staphylococcus aureus = assay: Killing of antibiotic resistant bacteria (FIG. 2); settings: 1 hour time point after addition, single cell format
C. tropicalis = settings: 24 h
Description: as §1

Description for A. baumanii (G−) biofilm: as §3, §4

Molecule	IC50 (C. krusei)	IC50 [2]	Average MBEC [3]	Average MBEC [4]	Average MBEC (A. baumanii (G−) biofilm)	Average MBEC [5]	EC50 (B. thailandensis)	also measured
CN[C@H](CC(C)C)C(=O)N[C@H]1C(=O)N[C@@H](CC(N)=O)C(=O)N[C@H]2C(=O)N[C@H]3C(=O)N[C@H](C(=O)N[C@H](C(=O)O)c4cc(O)cc(O)c4-c4cc3ccc4O)[C@H](O)c3ccc(c(Cl)c3)Oc3cc2cc(c3O[C@@H]2O[C@H](CO)[C@@H](O)[C@H](O)[C@H]2O[C@H]2C[C@](C)(N)[C@H](O)[C@H](C)O2)Oc2ccc(cc2Cl)[C@H]1O [vancomycin, reference compound]								killing of C. difficile (Clostridium difficile): not effective; killing of P. aeruginosa (Pseudomonas aeruginosa): not effective
CC[C@H](C)[C@H](NC(=O)[C@H](CCCNC(=N)N)NC(=O)[C@H](C)NC(=O)[C@H](CC(C)C)NC(=O)[C@H](CCCNC(=N)N)NC(=O)[C@@H](N)CS)C(=O)N[C@H](C(=O)N[C@@H](CS)C(=O)NCC(=O)NCC(=O)N[C@@H](Cc1ccccc1)C(=O)N[C@@H](C)C(=O)N[C@@H](CCCN)C(=O)N[C@@H](CCCN)C(=O)N[C@@H](Cc1ccccc1)C(=O)N[C@@H](C)C(=O)N[C@@H](CCCN)C(=O)N[C@@H](CCCN)C(=O)N[C@@H](Cc1ccccc1)C(=O)N[C@@H](CCCN)C(=O)N[C@@H](CCCN)C(=O)N[C@@H](Cc1ccccc1)C(=O)N[C@@H](C)C(=O)N[C@@H](CCCN)C(=O)N[C@@H](CCCN)C(=O)N[C@@H](Cc1ccccc1)C(=O)N[C@@H](C)C(=O)N[C@@H](CCCN)C(=O)N[C@@H](Cc1ccccc1)C(=O)N[C@@H](C)C(=O)N[C@@H](Cc1ccccc1)C(=O)N[C@@H](C)C(=O)N[C@@H](Cc1ccccc1)C(=O)O)C(C)C [RP501, CRLARIVCGGFAOOFAOOFOOFAOOFAOFAFAF] (H-CRLARIVCGGFA[Orn][Orn]FA[Orn][Orn]F[Orn][Orn]FA[Orn][Orn]FA[Orn]FAFAF-OH; N-terminus and C-terminus assumed)								IC50 (E. coli): 7.3 µM; IC50 (E. cloaca): 14.5 µM; IC50 [1]: 13.6 µM
CC[C@H](C)[C@H](NC(=O)CNC(=O)CNC(=O)[C@H](CS)NC(=O)[C@H](Cc1ccccc1)NC(=O)[C@H](CCCN)NC(=O)CNC(=O)[C@H](CC(C)C)NC(=O)[C@H](CS)NC(=O)CNC(=O)CNC(=O)[C@H](CC(C)C)NC(=O)[C@H](CCCN)NC(=O)[C@H](C)NC(=O)[C@H](CCCN)NC(=O)[C@@H](NC(=O)[C@H](CCCN)NC(=O)[C@@H](N)Cc1ccccc1)[C@@H](C)CC)C(=O)N[C@@H](CCCN)C(=O)N[C@@H](C)C(=O)N[C@@H](CCCN)C(=O)N[C@@H](CC(C)C)C(=O)N[C@@H](CCCN)C(=O)N[C@@H](Cc1ccccc1)C(=O)O [RP504, FOIOAOLGGCLGOFCGGIOAOLOF] (H-F[Orn]I[Orn]A[Orn]LGGCLG[Orn]FCGGI[Orn]A[Orn]L[Orn]F-OH; N-terminus and C-terminus assumed)	2.7 µM	23 µM						IC50 (E. coli): 10.8 µM; IC50 [1]: 17.6 µM; IC50 (C. albicans): 43.3 µM
FAFAFAFKKAFKKFKKAFKKAF [RP442]			14.68 µM	14.68 µM	1.87 µM	234.28 µM	0.95 µM	killing of C. difficile (Clostridium difficile): effective in killing; killing of S. aureus (Staphylococcus aureus): effectively killed; killing of P. aeruginosa (Pseudomonas aeruginosa): effective in killing
CPGFAKKFAKKFKKFAKKFAKFAFAF [RP438]			12.89 µM	12.89 µM	6.45 µM	51.43 µM	11.2 µM	
CSCC[C@H](NC(=O)[C@H](Cc1c[nH]c2ccccc12)NC(=O)[C@H](CC(C)C)NC(=O)[C@H](C)N)C(=O)N[C@H](C(=O)N[C@@H](CC(C)C)C(=O)N[C@@H](CCCN)C(=O)N[C@@H](CCCN)C(=O)N[C@@H](CCCN)C(=O)N[C@H](C(=O)N[C@@H](CC(C)C)C(=O)N[C@@H](CCCN)C(=O)N[C@@H](C)C(=O)N[C@@H](CCCN)C(=O)N[C@@H](C)C(=O)N[C@@H](CCCN)C(=O)N[C@@H](C)C(=O)N[C@@H](CC(C)C)C(=O)N[C@@H](CC(N)=O)C(=O)N[C@@H](C)C(=O)N[C@H](C(=O)N[C@@H](CC(C)C)C(=O)N[C@H](C(=O)NCC(=O)N[C@@H](C)C(=O)N[C@@H](CC(N)=O)C(=O)N[C@@H](C)C(=O)O)C(C)C)C(C)C)C(C)C)[C@@H](C)O [RP507, ALWMTLOOOVLOAOAOALNAVLVGANA] (H-ALWMTL[Orn][Orn][Orn]VL[Orn]A[Orn]A[Orn]ALNAVLVGANA-OH; N-terminus and C-terminus assumed)	20 µM	43.3 µM						IC50 (C. tropicalis): 40 µM
CC[C@H](C)[C@H](NC(=O)[C@H](CS)NC(=O)[C@H](Cc1ccccc1)NC(=O)[C@H](CCCNC(=N)N)NC(=O)CNC(=O)[C@H](CC(C)C)NC(=O)[C@H](CS)NC(=O)[C@H](CC(C)C)NC(=O)[C@H](CCCCN)NC(=O)[C@H](C)NC(=O)[C@H](CCCNC(=N)N)NC(=O)[C@@H](NC(=O)[C@@H](N)CCCCN)[C@@H](C)CC)C(=O)N[C@@H](CCCNC(=N)N)C(=O)N[C@@H](C)C(=O)N[C@@H](CCCCN)C(=O)N[C@@H](CC(C)C)C(=O)N[C@@H](CCCNC(=N)N)C(=O)O [RP439, KIRAKLCLGRFCIRAKLR] (H-KIRAKLCLGRFCIRAKLR-OH)								killing of C. difficile (Clostridium difficile): effective in killing; killing of S. aureus (Staphylococcus aureus): effectively killed; killing of P. aeruginosa (Pseudomonas aeruginosa): effective in killing
C[C@H](N)C(=O)N[C@@H](Cc1ccccc1)C(=O)N[C@@H](C)C(=O)N[C@@H](Cc1ccccc1)C(=O)N[C@H](C(=O)N[C@@H](C)C(=O)N[C@@H](CCCN)C(=O)N[C@@H](CCCN)C(=O)N[C@@H](CCCN)C(=O)N[C@@H](Cc1ccccc1)C(=O)N[C@@H](C)C(=O)N[C@@H](CCCN)C(=O)N[C@@H](Cc1ccccc1)C(=O)N[C@@H](CCCN)C(=O)N[C@@H](C)C(=O)N[C@@H](CCCN)C(=O)N[C@@H](Cc1ccccc1)C(=O)N[C@@H](C)C(=O)N[C@@H](CC(N)=O)C(=O)N[C@@H](Cc1ccccc1)C(=O)N[C@@H](C)C(=O)N[C@@H](Cc1ccccc1)C(=O)N[C@@H](C)C(=O)NCC(=O)N[C@@H](Cc1ccccc1)C(=O)N[C@@H](CC(N)=O)C(=O)N[C@@H](C)C(=O)O)[C@@H](C)O [RP508, AFAFTAOOOFAOFOAOFANFAFAGFNA] (H-AFAFTA[Orn][Orn][Orn]FA[Orn]F[Orn]A[Orn]FANFAFAGFNA-OH; N-terminus and C-terminus assumed)	38.3 µM	46 µM						IC50 (C. albicans): 38.3 µM
C[C@H](NC(=O)[C@H](Cc1ccccc1)NC(=O)[C@H](C)NC(=O)[C@H](Cc1ccccc1)NC(=O)[C@H](CCCN)NC(=O)[C@H](C)NC(=O)[C@H](Cc1ccccc1)NC(=O)[C@H](CCCN)NC(=O)[C@H](CCCN)NC(=O)[C@H](C)NC(=O)[C@H](Cc1ccccc1)NC(=O)[C@H](CCCN)NC(=O)[C@H](CCCN)NC(=O)[C@H](Cc1ccccc1)NC(=O)[C@H](CCCN)NC(=O)[C@H](CCCN)NC(=O)[C@H](C)NC(=O)[C@H](Cc1ccccc1)NC(=O)[C@H](CCCN)NC(=O)[C@H](CCCN)NC(=O)[C@H](C)NC(=O)[C@@H](N)Cc1ccccc1)C(=O)N[C@@H](Cc1ccccc1)C(=O)O [RP444, FAOOFAOOFOOFAOOFAOFAFAF] (H-FA[Orn][Orn]FA[Orn][Orn]F[Orn][Orn]FA[Orn][Orn]FA[Orn]FAFAF-OH; N-terminus and C-terminus assumed)			14.41 µM	14.41 µM	3.68 µM	57.62 µM	14.8 µM	
CC[C@H](C)[C@H](NC(=O)[C@H](C)NC(=O)[C@H](CCCN)NC(=O)[C@H](CCCN)NC(=O)[C@H](CCCN)NC(=O)[C@@H](NC(=O)[C@H](CCCN)NC(=O)[C@H](CC(C)C)NC(=O)[C@H](CCCN)NC(=O)[C@H](CCCN)NC(=O)[C@H](CCCN)NC(=O)[C@H](CCCN)NC(=O)[C@H](C)NC(=O)[C@H](CCCN)NC(=O)[C@H](CO)NC(=O)[C@H](CC(C)C)NC(=O)[C@@H](NC(=O)[C@H](CCCCN)NC(=O)[C@H](CC(C)C)NC(=O)[C@H](CC(C)C)NC(=O)[C@H](CO)NC(=O)[C@H](CCCN)NC(=O)[C@H](CC(C)C)NC(=O)[C@@H](N)CCCN)[C@@H](C)O)[C@@H](C)O)C(=O)N[C@@H](CO)C(=O)N[C@@H](CCCN)C(=O)O [RP505, OLOSLLKTLSOAOOOOLOTOOOAISO] (H-[Orn]L[Orn]SLLKTLS[Orn]A[Orn][Orn][Orn][Orn]L[Orn]T[Orn][Orn][Orn]AIS[Orn]-OH; N-terminus and C-terminus assumed)	17.5 µM	13.2 µM						IC50 (C. tropicalis): 8.8 µM
C[C@H](NC(=O)[C@H](Cc1ccccc1)NC(=O)[C@H](C)NC(=O)[C@@H](N)Cc1ccccc1)C(=O)N[C@@H](Cc1ccccc1)C(=O)N[C@@H](CCCN)C(=O)N[C@@H](C)C(=O)N[C@@H](Cc1ccccc1)C(=O)N[C@@H](CCCN)C(=O)N[C@@H](CCCN)C(=O)N[C@@H](C)C(=O)N[C@@H](Cc1ccccc1)C(=O)N[C@@H](CCCN)C(=O)N[C@@H](CCCN)C(=O)N[C@@H](Cc1ccccc1)C(=O)N[C@@H](CCCN)C(=O)N[C@@H](CCCN)C(=O)N[C@@H](C)C(=O)N[C@@H](Cc1ccccc1)C(=O)N[C@@H](CCCN)C(=O)N[C@@H](CCCN)C(=O)N[C@@H](C)C(=O)N[C@@H](Cc1ccccc1)C(=O)O [RP443, FAFAFOAFOOAFOOFOOAFOOAF] (H-FAFAF[Orn]AF[Orn][Orn]AF[Orn][Orn]F[Orn][Orn]AF[Orn][Orn]AF-OH; N-terminus and C-terminus assumed)			7.36 µM	3.68 µM	3.68 µM	57.62 µM	55.6 µM	

From patent US10017542B2, “Antimicrobial peptides and methods of use thereof” (priority 2015, dated 2018)
